Laboratory results from patent US20240350522A1, “HYGROMYCIN A FOR TREATMENT OF DISEASES AND INFECTIONS” (FLIGHTPATH BIOSCIENCES, INC., priority 2021, published 2024).
Where “and” joins values, the source holds several entries; their conditions need not be identical. Identical values can stand only once. Like-named read-outs stand apart in the source and are kept apart here.

Legend:
Format in all cases: cell-based
Treponema denticola = assay: MBC of Hyg A against Treponema denticola strains; settings: for MBC: Treponema denticola
[1] = test system: Treponema pallidum pallidum Chicago strain; assay: Treated treponemes seeded onto no-antibiotic plate, 7 more days, T47 qPCR (treponemicidal activity); settings: for Mean T47 copies/μL, Avg. / Mean T47 copies/μL, Expt. values: seeded on no antibiotic plate; for Mean T47 copies/μL, Avg.: average; for Mean T47 copies/μL, Expt. values: replicate wells
[2] = test system: Parvimonas micra (ATCC 33270); assay: MBC of Hyg A against P. micra; settings: for MBC: ATCC33270
[3] = test system: Porphyromonas gingivalis (ATCC 33277); assay: MIC of Hyg A against P. gingivalis (OD600, dark field microscopy)
[4] = test system: Treponema pallidum pallidum SS14 strain; assay: Treated treponemes seeded onto no-antibiotic plate, 7 more days, T47 qPCR (treponemicidal activity); settings: for Mean T47 copies/μL, Avg. / Mean T47 copies/μL, Expt. values: seeded on no antibiotic plate; for Mean T47 copies/μL, Avg.: average; for Mean T47 copies/μL, Expt. values: replicate wells
[5] = test system: Porphyromonas gingivalis (ATCC 33277); assay: MBC of Hyg A against P. gingivalis
[6] = pre-treated with Hygromycin A 0.03 μg/ml
[7] = pre-treated with Hygromycin A 0.06 μg/ml
[8] = pre-treated with Hygromycin A 0.12 μg/ml
[9] = pre-treated with Hygromycin A 0.24 μg/ml
[10] = pre-treated with Hygromycin A 0.48 μg/ml
[11] = pre-treated with Hygromycin A 0.96 μg/ml
[12] = pre-treated with Hygromycin A 1.92 μg/ml
[13] = pre-treated with Hygromycin A 3.84 μg/ml

Question: How did the “type of effect (bactericidal/bacteriostatic)” value (Treponema denticola; T. denticola strains, from MBC/MIC ratio) turn out when `CC(=O)[C@H]1O[C@@H](Oc2ccc(/C=C(\C)C(=O)N[C@@H]3[C@H](O)[C@@H](O)[C@H]4OCO[C@H]4[C@@H]3O)cc2O)[C@@H](O)[C@@H]1O` [Hyg A, Hygromycin A] was run?
Answer: Its value is “bactericidal”.

Question: And the MBC (Treponema denticola; ATCC35404, ATCC 35404, strain most tolerant, read-out: MBC)?
Answer: The MBC was 5 µg/mL.

Question: What about the MBC (Treponema denticola; T. denticola 33520, experiment 1, read-out: MBC (μg/ml) 1) of the same compound?
Answer: The MBC was 5 µg/mL.

Question: And the MBC (Treponema denticola; T. denticola 33520, experiment 2, read-out: MBC (μg/ml) 2)?
Answer: Its MBC is 1 µg/mL.

Question: And the MBC (Treponema denticola; T. denticola 33521, experiment 1, read-out: MBC (μg/ml) 1)?
Answer: Its MBC is 0.5 µg/mL.

Question: What about the MBC (Treponema denticola; T. denticola 33521, experiment 2, read-out: MBC (μg/ml) 2) of the same compound?
Answer: The MBC was 2 µg/mL.

Question: And the MBC (Treponema denticola; T. denticola 35404, experiment 1, read-out: MBC (μg/ml) 1)?
Answer: The MBC was 5 µg/mL.

Question: What about the MBC (Treponema denticola; T. denticola 35404, experiment 2, read-out: MBC (μg/ml) 2) of the same compound?
Answer: The MBC was over 5 µg/mL.

Question: And the MBC (Treponema denticola; T. denticola 35405, experiment 1, read-out: MBC (μg/ml) 1)?
Answer: The MBC was 1 µg/mL.

Question: And the MBC (Treponema denticola; T. denticola 35405, experiment 2, read-out: MBC (μg/ml) 2)?
Answer: Its MBC is 0.5 µg/mL.

Question: What about the MBC (Treponema denticola; T. denticola ASLM, experiment 1, read-out: MBC (μg/ml) 1) of the same compound?
Answer: The MBC was 1 µg/mL.

Question: What about the MBC (Treponema denticola; T. denticola ASLM, experiment 2, read-out: MBC (μg/ml) 2) of the same compound?
Answer: Its MBC is 1 µg/mL.

Question: And the MBC (Treponema denticola; T. denticola H1-T, experiment 1, read-out: MBC (μg/ml) 1)?
Answer: Its MBC is 0.5 µg/mL.

Question: What about the MBC (Treponema denticola; T. denticola H1-T, experiment 2, read-out: MBC (μg/ml) 2) of the same compound?
Answer: The MBC was 0.5 µg/mL.

Question: And the MBC (Treponema denticola; T. denticola OTK, experiment 1, read-out: MBC (μg/ml) 1)?
Answer: Its MBC is 1 µg/mL.

Question: What about the MBC (Treponema denticola; T. denticola OTK, experiment 2, read-out: MBC (μg/ml) 2) of the same compound?
Answer: The MBC was 1 µg/mL.

Question: And the MBC (Treponema denticola; T. denticola SP44, experiment 1, read-out: MBC (μg/ml) 1)?
Answer: The MBC was 5 µg/mL.

Question: And the MBC (Treponema denticola; T. denticola SP44, experiment 2, read-out: MBC (μg/ml) 2)?
Answer: The MBC was 2 µg/mL.

Question: And the MBC (Treponema denticola; T. denticola US Trep, experiment 1, read-out: MBC (μg/ml) 1)?
Answer: The MBC was 1 µg/mL.

Question: What about the MBC (Treponema denticola; T. denticola US Trep, experiment 2, read-out: MBC (μg/ml) 2) of the same compound?
Answer: Its MBC is 1 µg/mL.

Question: What about the “ratio of MBC/MIC” value (Treponema denticola; average for all T. denticola strains) of the same compound?
Answer: The value was 2.3.

Question: What about the “concentration with treponemicidal activity” value ([1]; Chicago strain seeded onto no-antibiotic control plate) of the same compound?
Answer: The value was at least 0.12 µg/mL.

Question: What about the “Mean T47 copies/μL, Avg.” value [1, 6] of the same compound?
Answer: Its value is 14552 copies/μL.

Question: And the “Mean T47 copies/μL, Expt. values” [1, 6]?
Answer: Its value is 10276 copies/μL and 18338 copies/μL and 20335 copies/μL and 9952 copies/μL.

Question: And the “Mean T47 copies/μL, Avg.” value [1, 7]?
Answer: Its value is 1000 copies/μL.

Question: What about the “Mean T47 copies/μL, Expt. values” [1, 7] of the same compound?
Answer: The value was 744 copies/μL and 560 copies/μL and 2087 copies/μL and 892 copies/μL.

Question: And the “Mean T47 copies/μL, Avg.” value [1, 8]?
Answer: Its value is 28 copies/μL.

Question: What about the “Mean T47 copies/μL, Expt. values” [1, 8] of the same compound?
Answer: The value was 13 copies/μL and 19 copies/μL and 39 copies/μL and 22 copies/μL.

Question: What about the “Mean T47 copies/μL, Avg.” value [1, 9] of the same compound?
Answer: The value was 32 copies/μL.

Question: What about the “Mean T47 copies/μL, Expt. values” [1, 9] of the same compound?
Answer: Its value is 17 copies/μL and 41 copies/μL and 22 copies/μL and 52 copies/μL.

Question: And the “Mean T47 copies/μL, Avg.” value [1, 10]?
Answer: The value was 26 copies/μL.

Question: And the “Mean T47 copies/μL, Expt. values” [1, 10]?
Answer: The value was 0 copies/μL and 32 copies/μL (2×) and 23 copies/μL and 22 copies/μL.

Question: And the “Mean T47 copies/μL, Avg.” value [1, 11]?
Answer: The value was 24 copies/μL.

Question: And the “Mean T47 copies/μL, Expt. values” [1, 11]?
Answer: Its value is 14 copies/μL and 23 copies/μL and 31 copies/μL and 27 copies/μL and 7 copies/μL.

Question: What about the “Mean T47 copies/μL, Avg.” value [1, 12] of the same compound?
Answer: The value was 23 copies/μL.

Question: And the “Mean T47 copies/μL, Expt. values” [1, 12]?
Answer: The value was 28 copies/μL and 8 copies/μL and 23 copies/μL and 36 copies/μL and 34 copies/μL.

Question: And the “Mean T47 copies/μL, Avg.” value [1, 13]?
Answer: The value was 27 copies/μL.

Question: And the “Mean T47 copies/μL, Expt. values” [1, 13]?
Answer: The value was 37 copies/μL and 24 copies/μL and 27 copies/μL and 41 copies/μL and 13 copies/μL.

Question: What about the MBC ([2]; Parvimonas micra ATCC 33270, read-out: MBC) of the same compound?
Answer: The MBC was over 10 µg/mL.

Question: And the “type of effect (bactericidal/bacteriostatic)” value ([2]; P. micra)?
Answer: The value was “bacteriostatic”.

Question: What about the “MIC:MBC ratio” value ([2]; P. micra 33270) of the same compound?
Answer: Its value is over 0.2.

Question: What about the MBC ([2]; Parvimonas micra, P. micra 33270, experiment 1, read-out: MBC (μg/ml) 1) of the same compound?
Answer: The MBC was over 10 µg/mL.

Question: What about the MBC ([2]; Parvimonas micra, P. micra 33270, experiment 2, read-out: MBC (μg/ml) 2) of the same compound?
Answer: Its MBC is over 10 µg/mL.

Question: What about the MIC ([3]; ATCC33277, P. gingivalis 33277, experiment 1, read-out: MIC (μg/ml) 1) of the same compound?
Answer: Its MIC is 5 µg/mL.

Question: And the MIC ([3]; ATCC33277, P. gingivalis 33277, experiment 2, read-out: MIC (μg/ml) 2)?
Answer: The MIC was 5 µg/mL.

Question: And the “concentration with treponemicidal activity” value ([4]; SS14 strain seeded onto no-antibiotic control plate)?
Answer: Its value is at least 0.12 µg/mL.

Question: What about the “Mean T47 copies/μL, Avg.” value [4, 6] of the same compound?
Answer: The value was 2232 copies/μL.

Question: What about the “Mean T47 copies/μL, Expt. values” [4, 6] of the same compound?
Answer: Its value is 1649 copies/μL and 3690 copies/μL and 3831 copies/μL and 2114 copies/μL and 445 copies/μL and 1541 copies/μL and 2079 copies/μL and 2511 copies/μL.

Question: What about the “Mean T47 copies/μL, Avg.” value [4, 7] of the same compound?
Answer: The value was 199 copies/μL.

Question: And the “Mean T47 copies/μL, Expt. values” [4, 7]?
Answer: The value was 137 copies/μL and 310 copies/μL and 274 copies/μL and 99 copies/μL and 71 copies/μL and 159 copies/μL and 200 copies/μL and 343 copies/μL.

Question: What about the “Mean T47 copies/μL, Avg.” value [4, 8] of the same compound?
Answer: Its value is 20 copies/μL.

Question: What about the “Mean T47 copies/μL, Expt. values” [4, 8] of the same compound?
Answer: Its value is 17 copies/μL and 14 copies/μL and 45 copies/μL and 0 copies/μL and 22 copies/μL and 25 copies/μL and 15 copies/μL and 24 copies/μL.

Question: And the “Mean T47 copies/μL, Avg.” value [4, 9]?
Answer: Its value is 13 copies/μL.

Question: And the “Mean T47 copies/μL, Expt. values” [4, 9]?
Answer: The value was 35 copies/μL and 16 copies/μL (2×) and 6 copies/μL and 5 copies/μL and 21 copies/μL and 7 copies/μL and 0 copies/μL.

Question: And the “Mean T47 copies/μL, Avg.” value [4, 10]?
Answer: The value was 9 copies/μL.

Question: What about the “Mean T47 copies/μL, Expt. values” [4, 10] of the same compound?
Answer: Its value is 2 copies/μL and 0 copies/μL (2×) and 16 copies/μL and 10 copies/μL and 31 copies/μL and 5 copies/μL and 6 copies/μL.

Question: What about the “Mean T47 copies/μL, Avg.” value [4, 11] of the same compound?
Answer: Its value is 7 copies/μL.

Question: What about the “Mean T47 copies/μL, Expt. values” [4, 11] of the same compound?
Answer: Its value is 8 copies/μL and 11 copies/μL and 0 copies/μL (2×) and 3 copies/μL (2×) and 16 copies/μL and 13 copies/μL.

Question: And the “Mean T47 copies/μL, Avg.” value [4, 12]?
Answer: The value was 13 copies/μL.

Question: And the “Mean T47 copies/μL, Expt. values” [4, 12]?
Answer: Its value is 5 copies/μL (2×) and 7 copies/μL and 17 copies/μL and 19 copies/μL (2×) and 8 copies/μL and 22 copies/μL.

Question: What about the “Mean T47 copies/μL, Avg.” value [4, 13] of the same compound?
Answer: The value was 19 copies/μL.

Question: What about the “Mean T47 copies/μL, Expt. values” [4, 13] of the same compound?
Answer: The value was 19 copies/μL and 25 copies/μL and 21 copies/μL (2×) and 18 copies/μL and 7 copies/μL and 15 copies/μL and 22 copies/μL.

Question: And the MBC ([5]; ATCC33277, P. gingivalis 33277, experiment 1, read-out: MBC (μg/ml) 1)?
Answer: The MBC was over 5 µg/mL.

Question: And the MBC ([5]; ATCC33277, P. gingivalis 33277, experiment 2, read-out: MBC (μg/ml) 2)?
Answer: Its MBC is over 5 µg/mL.
